Literature values in patent publication US11147777B1, “Methods and formulations for efficacious pain relief by transdermal delivery of cannabidiol” (CHARLOTTE'S WEB, INC., priority 2017, dated 2021).

Target: T1, mTRPM8 (Mus musculus, UniProt Q8R4D5)
T1 construct: expressed in transfected cells; host or cells: HEK293
Settings: normalized to the efficacy of icilin, as disclosed by Behrendt et al.

T1 sequence (Q8R4D5 whole entry): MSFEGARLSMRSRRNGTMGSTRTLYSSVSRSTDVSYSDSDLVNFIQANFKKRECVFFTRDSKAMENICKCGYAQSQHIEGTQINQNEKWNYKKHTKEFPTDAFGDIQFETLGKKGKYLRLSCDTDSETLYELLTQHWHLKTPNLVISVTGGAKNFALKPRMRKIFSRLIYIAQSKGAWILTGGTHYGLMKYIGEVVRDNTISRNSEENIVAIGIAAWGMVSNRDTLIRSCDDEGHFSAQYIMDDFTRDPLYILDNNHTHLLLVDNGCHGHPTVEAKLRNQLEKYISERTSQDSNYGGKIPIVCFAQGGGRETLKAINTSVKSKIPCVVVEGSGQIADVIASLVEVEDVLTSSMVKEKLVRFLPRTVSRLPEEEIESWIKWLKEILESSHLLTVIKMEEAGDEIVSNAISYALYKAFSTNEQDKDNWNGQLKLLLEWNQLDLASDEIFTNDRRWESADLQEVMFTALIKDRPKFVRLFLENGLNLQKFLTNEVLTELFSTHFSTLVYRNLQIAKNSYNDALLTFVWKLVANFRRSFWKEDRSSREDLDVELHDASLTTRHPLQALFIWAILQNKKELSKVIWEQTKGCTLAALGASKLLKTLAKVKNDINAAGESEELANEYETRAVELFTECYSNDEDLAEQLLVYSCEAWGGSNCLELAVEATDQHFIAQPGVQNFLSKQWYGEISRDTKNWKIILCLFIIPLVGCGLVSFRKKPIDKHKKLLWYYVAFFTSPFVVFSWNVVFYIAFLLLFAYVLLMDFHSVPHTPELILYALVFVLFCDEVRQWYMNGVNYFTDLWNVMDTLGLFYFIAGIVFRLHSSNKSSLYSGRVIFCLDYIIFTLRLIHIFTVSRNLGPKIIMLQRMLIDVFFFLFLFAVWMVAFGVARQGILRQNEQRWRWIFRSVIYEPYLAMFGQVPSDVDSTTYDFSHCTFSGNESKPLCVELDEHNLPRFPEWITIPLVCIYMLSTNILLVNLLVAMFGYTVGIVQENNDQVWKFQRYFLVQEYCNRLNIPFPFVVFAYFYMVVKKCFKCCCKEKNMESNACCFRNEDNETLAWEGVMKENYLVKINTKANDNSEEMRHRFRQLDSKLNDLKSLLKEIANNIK

SMILES: CC1CCC(C(C)C)C(O)C1 (stereo not shown) [menthol]
- relative efficacy as TRPM8 agonist on icilin-normalized scale (100 menthol = 70 icilin): 70
